Measured values reported in US6686484B2, “Polycyclic aryl and heteroaryl substituted 1,4-quinones useful for selective inhibition of the coagulation cascade” (Pharmacia Corporation, priority 2000, dated 2004).

Columns and labels:
Format in all cases: biochemical
[1] = molecular target: T1, recombinant soluble tissue factor and recombinant human factor VIIa (TF-VIIA) (Homo sapiens, UniProt P08709); test: TF-VIIa Assay; conditions: chromogenic substrate N-Methylsulfonyl-D-phe-gly-arg-p-nitroaniline, 60 min room temperature, OD 405 nm
T1 construct: conversion of coagulation factor VII to VIIa by Xa; purchased American Diagnostica, Greenwich Conn; (VIIa); soluble TF made in house in E. coli; host or cells: E. coli (soluble TF)
Protocol: In this assay 100 nM recombinant soluble tissue factor and 2 nM recombinant human factor VIIa are added to a 96 well assay plate containing 0.4 mM of the substrate, N-Methylsulfonyl-D-phe-gly-arg-p-nitroaniline and either inhibitor or buffer (5 mM CaCl2, 50 mM Tris-HCl, pH 8.0, 100 mM NaCl, 0.1% BSA). The reaction, in a final volume of 100 ul is measured immediately at 405 nm to determine background absorbance. The plate is incubated at room temperature for 60 min, at which time the rate of hydrolysis of the substrate is measured by monitoring the reaction at 405 nm for the release of p-nitroaniline. Percent inhibition of TF-VIIa activity is calculated from OD405nm value from the experimental and control sample.

human thrombin = human thrombin (Homo sapiens, UniProt P00734); test: Thrombin Assay; conditions: substrate H-D-Phenylalanyl-L-pipecolyl-L-arginine-p-nitroaniline, 60 min room temperature, OD 405 nm; read-out: Thrombin II IC50
Protocol: 0.28 nM human thrombin and 0.06 mM H-D-Phenylalanyl-L-pipecolyl-L-arginine-p-nitroaniline dihydrochloride are added to a 96-well assay plate containing either inhibitor or buffer (50 mM Tris-HCl, pH 8.0, 100 mM NaCl, 0.1% BSA). The reaction, in a final volume of 100 ul is measured immediately at 405 nm to determine background absorbance. The plate is incubated at room temperature for 60 min, at which time the rate of hydrolysis of the substrate is measured by monitoring the reaction at 405 nm for the release of p-nitroaniline. Percent inhibition of thrombin activity is calculated from OD405nm value from the experimental and control sample.

[2] = molecular target: T2, trypsin, type IX from porcine pancreas (Sus scrofa, UniProt P00761); test: Trypsin Assay; conditions: substrate L-BAPNA, 60 min room temperature, OD 405 nm; read-out: Trpysin II IC50
T2 construct: purchased Sigma, St. Louis Mo; host or cells: porcine pancreas
Protocol: 5 ug/ml trypsin, type IX from porcine pancreas and 0.375 mM N-α-Benzoyl-L-arginine-p-nitroanilide (L-BAPNA) are added to a 96-well assay plate containing either inhibitor or buffer (50 mM Tris-HCl, pH 8.0, 100 mM NaCl, 0.1% BSA). The reactions, in a final volume of 100 ul are measured immediately at 405 nm to determine background absorbance. The plate is incubated at room temperature for 60 min, at which time the rate of hydrolysis of the substrate is measured by monitoring the reaction at 405 nm for the release of p-nitroaniline. Percent inhibition of trypsin activity is calculated from OD405nm value from the experimental and control sample.
Recombinant soluble TF, consisting of amino acids 1-219 of the mature protein sequence was expressed in E. coli and purified using a Mono Q Sepharose FPLC. Recombinant human VIIa was purchased from American Diagnostica, Greenwich Conn. and chromogenic substrate N-Methylsulfonyl-D-phe-gly-arg-p-nitroaniline was prepared by American Peptide Company, Inc., Sunnyvale, Calif. Factor Xa was obtained from Enzyme Research Laboratories, South Bend Ind., thrombin from Calbiochem, La Jolla, Calif., and trypsin and L-BAPNA from Sigma, St. Louis Mo. The chromogenic substrates S-2765 and S-2238 were purchased from Chromogenix, Sweden.

T2 sequence (P00761 9-231): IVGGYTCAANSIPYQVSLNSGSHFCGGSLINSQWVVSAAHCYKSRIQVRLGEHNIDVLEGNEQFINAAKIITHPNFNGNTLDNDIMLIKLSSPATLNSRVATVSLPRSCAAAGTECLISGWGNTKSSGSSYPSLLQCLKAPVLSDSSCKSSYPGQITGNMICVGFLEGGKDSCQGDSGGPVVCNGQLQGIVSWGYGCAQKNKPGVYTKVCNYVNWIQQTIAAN
T1 sequence (P08709 213-466 limits assumed): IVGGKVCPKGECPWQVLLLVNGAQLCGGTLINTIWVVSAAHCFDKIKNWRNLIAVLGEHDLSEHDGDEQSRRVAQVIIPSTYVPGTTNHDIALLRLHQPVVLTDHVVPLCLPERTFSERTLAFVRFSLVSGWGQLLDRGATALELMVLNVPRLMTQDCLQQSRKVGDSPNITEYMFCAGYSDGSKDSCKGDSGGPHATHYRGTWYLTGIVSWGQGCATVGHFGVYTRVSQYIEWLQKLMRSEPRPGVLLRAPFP
T1 sequence (P08709 61-212 limits assumed): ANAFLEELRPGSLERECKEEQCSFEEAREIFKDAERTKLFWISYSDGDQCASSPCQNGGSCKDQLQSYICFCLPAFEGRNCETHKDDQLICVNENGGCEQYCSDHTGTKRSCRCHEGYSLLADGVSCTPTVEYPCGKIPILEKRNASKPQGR
T1 sequence (P13726 33-251 partner limits assumed): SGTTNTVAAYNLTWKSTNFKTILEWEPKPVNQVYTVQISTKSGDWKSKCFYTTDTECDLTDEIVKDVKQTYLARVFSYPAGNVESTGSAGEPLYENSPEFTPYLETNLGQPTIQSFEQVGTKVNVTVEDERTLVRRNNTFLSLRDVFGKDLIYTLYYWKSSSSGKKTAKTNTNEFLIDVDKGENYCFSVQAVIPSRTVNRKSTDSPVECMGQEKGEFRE

Row | Structure (SMILES) | IC50 [1] | IC50 (human thrombin) | IC50 [2]
1 | N=C(N)c1ccc(CNC(=O)CC2=C(c3ccccc3)C(=O)C=C(NCCc3ccccc3)C2=O)cc1 [Example 2] | 1300 nM | 960 nM | 740 nM
2 | CC(C)NC1=CC(=O)C(c2ccccc2)=C(CC(=O)NCc2ccc(C(=N)N)cc2)C1=O [Example 1] | – | – | 110 nM
